Legend:
CD4+ T cells = assay: Human mixed lymphocyte reaction (Example 13); type: cell-based
Description: FIG. 39A. DCs were induced from purified monocytes by culturing in IL4 and GM-CSF for 7 days. 10^5 purified CFSE labelled CD4+ T cells were then co-cultured with 10^4 allogenic DCs in the presence of a titration of LB-100 in duplicates or triplicates for 5 days. LB-100 was replenished on day 3. Supernatants were collected on day 5 and measured for IFN-γ production. FACS analysis was performed on the cultured cells.
In vitro activity of LB-100 in human mixed lymphocytes reactions: To further confirm the immune-modulating effect of LB-100 has clinical utility, mixed lymphocyte reactions (MLRs) were performed using PBMC from healthy human donors. Monocyte derived dendritic cells were co-cultured with allogenic CD4+ T cells labelled with cytosolic dye CFSE. LB-100 was given on the day of co-culture (Day 0) and again on Day 3. Proliferation and IFN-γ secretion by CD4 T cells were assessed on Day 5 (FIG. 39A). There was a significant increase in CD4 T cell proliferation, as measured by the percentage of dividing cells, with LB-100 treatment at 1 μM (31% compared to 20% in controls) (FIG. 39B). There was also a trend towards increased proliferation at lower LB100 concentrations (in the sub-micromolar range). […] Also examined was the effect of lineage differentiation in CD4 T cells by labeling for T-bet. […] Next tested whether LB-100 could enhance IFN-γ secretion in vitro in combination with PD1 blockade using Nivolumab. A similar MLR assay was performed with LB-100.
Human mixed lymphocyte reaction—as previously described in 39. Dendritic cells (DCs) were generated by culturing monocytes isolated from PBMC using a monocyte isolation kit (StemCell) in vitro for 7 days with 500U/ml interleukin-4 (IL-4) and 250 U/ml GM-CSF (R&D Systems). CD4+ T cells (1×10^5) isolated with CD4 isolation kit (StemCell) and labeled with CFSE (ThermoFisher) were co-cultured with allogeneic DCs (1×10^4). At the initiation of assay, a titration of LB-100 and/or Nivolumab was added. After 3 days, LB-100 was replenished to the final indicated concentration. After 5 days, culture supernatants were analyzed by ELISA (eBioscience) and cells were analyzed by flow cytometry. At least 3 separate donors were obtained and results of one representative donor were reported.

CD4/8 effector cells = assay: T cell subsets in naive mice (FIG. 13-14); type: in vivo, mouse
Description: FIG. 13A. […] Low dose of LB treatment in vivo induced more CD8 (left) and CD4 (right) effector T cells in lymph node. 5 mice per group. Control—PBS, Low dose—0.16 mg/kg, Medium dose—0.32 mg/kg.

Naïve CD4 cells = assay: T cell stimulation and skewing of naive CD4 cells; type: cell-based, mouse
Description: Naïve CD4 cells were isolated from mice splenocytes and activated in vitro with anti-CD3 and CD28 in the presence of TGF-β or IL4 to induce development of Treg or Th2 CD4+ cells respectively. After 72 hours, intranuclear expressions of Foxp3 or GATA3 were quantitated by flow cytometry to determine percentage of Treg or Th2 cells respectively. […] In addition, the relative proportion of Th2 and Th1 CD4+ cells was quantified by labeling for T-bet. […] Next, the functional consequence of Th1 CD4+ cell with LB-100 treatment was explored. […] This was shown with both intracellular staining (FIG. 38D) and measurement of cytokine secretion (FIG. 38E-F).
T cell stimulation and skewing—Naïve CD4 cells were isolated from mice splenocytes (StemCell). Cells were activated for 3 days using immobilized anti-CD3 (10 ug/ml) and soluble anti-CD28 (2 ug/ml). Skewing conditions were as follows: TH1, 1 .ig/mL anti-IL4, 5 ng/mL IL2, and 10 ng/mL IL12; TH2, 1 .ig/mL anti-IFN-7, 5 ng/mL IL2, and 10 ng/mL IL4; Treg, 1 .ig/mL anti-IFNγ, and 1 ig/mL anti-IL4, and 2 ng/mL TGFβ1. Bead-based multianalyte flow immunoassays (BD Bioscience) were used to measure cytokine production in the supernatant per manufacturer's instruction. Absolute cell numbers were quantified with flow cytometry using counting beads (Biolegend).

progressive solid tumors = assay: Phase I study: clinical activity (RECIST 1.1); type: in vivo, human
Description: Response to treatment was assessed using RECIST version 1.1. All patients with measurable disease, who completed 2 cycles of LB-100 and had at least 1 post-baseline tumor assessment, were evaluable for efficacy. Patients receiving any LB-100 were evaluable for safety. The severity of adverse events and laboratory abnormalities is reported according to NCI-CTCAE version 4.0 and coded using Medical Dictionary for Regulatory Activities.

CD8+ or CD4+ T cells = assay: Human allogeneic mixed lymphocyte reaction, T cells with monocyte-derived dendritic cells (Example 8); type: cell-based
Description: The effect of LB-100 on T-cells was assessed in human allogeneic mixed lymphocyte reactions, in which CD8+ or CD4+ T cells were co-cultured with […] monocyte-derived dendritic cells. […] The effect of LB-100 plus anti-PD-1 antibody was investigated on CD4+ T cells in the same assay.

[1] = of 20 patients with measurable disease

Compound: CN1CCN(C(=O)C2C(C(=O)O)[C@H]3CC[C@@H]2O3)CC1 (stereo partly drawn) [LB-100]
- enhancement of IFN-γ release (CD4+ T cells; 0.2 μM): 3.5 fold
- T-bet expression in CD4 T cells (CD4+ T cells; 1 μM): significantly increased
- enhancement of IFN-γ release (CD4+ T cells; 1 μM): 4 fold
- CD4 T cell proliferation, percentage of dividing cells (CD4+ T cells; 1 μM, day 5, controls 20%): 31%
- CD4 T cell proliferation (CD4+ T cells; 5 μM): impaired
- PD-1 expressing CD8+ T cells in blood (CD4/8 effector cells; low dose): reduced PD-1 expressing CD8+ T cells in blood
- CD4/8 effector cells in lymph node of naïve mice (CD4/8 effector cells; low dose 0.16 mg/kg): increased CD4/8 effector cells
- PD-1 expressing CD8+ T cells in spleen (CD4/8 effector cells; medium dose): reduced PD-1 expressing CD8+ T cells in spleen
- frequency of GATA3 expressing cells relative to Tbet expressing cells (Naïve CD4 cells): decreased significantly
- induction of Foxp3 by TGF-β (Naïve CD4 cells; 72 hours, dose dependent): significantly impaired
- induction of GATA3 by IL-4 (Naïve CD4 cells; 72 hours, dose dependent): significantly impaired
- TNF-α and IL2 secretion (Naïve CD4 cells; Th1 and Th2 conditions): increased
- IFN-γ expression (Naïve CD4 cells; Th1 and Th2 skewing conditions): dose dependent increase
- Secretion of IL4 (Naïve CD4 cells; Th2 conditions): decreased
- duration of partial response or stability of disease (progressive solid tumors; atypical carcinoid of the lung, 0.83 mg/m^2): 5 cycles
- duration of partial response or stability of disease (progressive solid tumors; breast cancer, 1.25 mg/m^2): 4 cycles
- duration of partial response or stability of disease (progressive solid tumors; chondrosarcoma, 3.1 mg/m^2): 8 cycles
- duration of partial response or stability of disease (progressive solid tumors; fibrosarcoma, started at 3.1 mg/m^2, two dose reductions): 12 cycles
- duration of partial response or stability of disease (progressive solid tumors; malignant thymoma, 1.75 mg/m^2): 8 cycles
- no progression of indicator lesion(s) (progressive solid tumors; [1]): 16 patients
- significant increases in the size of indicator lesion(s) by RECIST criteria (progressive solid tumors; [1]): 3 patients
- duration of partial response or stability of disease (progressive solid tumors; ovarian cancer, 1.75 mg/m^2): 6 cycles
- duration of partial response or stability of disease (progressive solid tumors; pancreatic cancer, 0.83 mg/m^2): 15 cycles
- partial response (progressive solid tumors; pancreatic carcinoma, noted after 10 cycles, maintained 5 more cycles, of 20 patients): One and one
- duration of partial response or stability of disease (progressive solid tumors; testicular cancer, 1.25 mg/m^2): 5 cycles
- IFNγ secretion in CD4+ T cells (CD8+ or CD4+ T cells): increase
- T cell proliferation in CD8+ and CD4+ cells (CD8+ or CD4+ T cells): dose dependent increase
- Tbet in CD4+ T cells (CD8+ or CD4+ T cells): dose dependent increase
- co-stimulatory molecule OX40 expression on T cells (CD8+ or CD4+ T cells): dose dependent increase
- PD-1 expression on human CD4 T cells (CD8+ or CD4+ T cells; co-cultured with monocytes derived DC): reduced PD-1 expression
